row,melting point,SMILES
1,230 to 232 °C,COc1ccc(-c2c(C(=O)O)c(=O)n(C)c3ccc(Cl)cc23)cc1OC
2,167 to 168 °C,O=C(Nc1ccc(SCCCCCCCCCCCCC(Cl)(Cl)C(=O)O)cc1)c1ccc(Cl)cc1
3,146 to 148 °C,COc1ccc(N2CCN(c3c(C)c(C)c4c(c3C)C(N3CCCCC3)C(C)(C)O4)CC2)cc1 (stereo not given)
4,238 to 239 °C,Fc1cccc(Cl)c1-c1cc(-c2ccc(Cl)cc2)nc2ncnn12
5,114 to 115 °C,CCc1ccc2oc(=O)c([N+](=O)[O-])c(O)c2c1
6,208 to 210 °C,Cc1nc[nH]c1CSCCNc1cc(=O)cc[nH]1
7,130 to 135 °C,O=C(CBr)NCCSC(c1ccccc1)(c1ccccc1)c1ccccc1
8,149 to 152 °C,CC(=O)Nc1ccc(C(C)=O)c(F)c1F
9,97 to 98 °C,COC(=O)c1cccc(OCc2nc(-c3ccccc3)oc2C)n1
10,190 to 191 °C,CCc1nc2c(N)nc3ccccc3c2n1CCCCS(=O)(=O)NC
11,142 to 145 °C,Cc1c(C)c(C)c2c(c1C)C=CC(C)(COc1ccc([N+](=O)[O-])cc1)O2 (stereo not given)
12,195 to 198 °C,O=C(OCN1C(=O)CN(CCN2CC(=O)N(COC(=O)c3ccc4c(c3)OCO4)C(=O)C2)CC1=O)c1ccc2c(c1)OCO2
13,208 to 210 °C,CC(C)OC(=O)c1cc(-n2c(=O)[nH]c3c(c2=O)CCC3)c(Cl)cc1Br
14,119 to 122 °C,COc1ccc(F)cc1OCCNCCCc1c[nH]c2ccc(F)cc12
15,> 300 °C,Cc1[nH]n(Cc2cccc(C(N)=O)c2)c2nc(-c3ccncc3)nc(=O)c1-2
16,116 to 118 °C,CCOC(=O)N1C=CC(c2c(-c3ccc(OC)cc3)nc3n2CCC3)C=C1
17,280 °C,Cc1cc(N)nc(/C=C/c2nc3cc(Br)cnc3[nH]2)c1
18,140 to 143 °C,O=C1c2ccccc2CCC1CNCC(O)c1cccc(O)c1 (stereo not given)
19,230 to 232 °C,COc1cccc2c(=O)n3ccsc3nc12
20,196 to 198 °C,CCOC(=O)C(N)=NOC(=O)c1ccc(F)cc1
21,110 °C,CC(C)c1cc2c(c(O)c1-c1ccc3c(c1)CCCC3)CCCC2
22,145 °C,Clc1cnc2ccc(Br)cc2n1
23,41 to 43 °C,CCCCCCCCCCCCn1nnc(CCC(=O)Nc2c(C(C)C)cccc2C(C)C)n1

row,melting point,SMILES
1,75 °C,O=C1CCc2cc(-c3ccccc3)ccc21
2,81.3 °C,CC(O)Cn1nc(Br)c([N+](=O)[O-])c1NCc1ccccc1 (stereo not given)
3,167 to 168 °C,COCOc1cc(CBr)c2nc3cccc(OCOC)c3nc2c1
4,> 107 °C,CCCCc1nn(-c2ccc(NCc3ccccc3)cc2C(F)(F)F)c(=O)n1Cc1ccc(-c2ccccc2S(=O)(=O)NC(=O)c2ccccc2Cl)cc1
5,226 °C,COc1ccc(-c2c(C)[nH]c(=S)n2Nc2cccc(Cl)c2)cc1
6,159 to 160 °C,CC(O)c1ccc(-c2ccc(O)cc2)cc1 (stereo not given)
7,120 °C,O=C(OCc1ccccc1)c1ncc(OCc2ccccc2)c(OCc2ccccc2)c1Br
8,179 to 183 °C,O=C(O)Cn1c(-c2ccccc2)ncc(NC(=O)OCc2ccccc2)c1=O
9,286 °C,O=C(NCc1ccc2c(c1)-c1[nH]nc(-c3ccsc3)c1C2)c1cccnc1
10,108 to 110 °C,COc1ccc(S(=O)(=O)N2C(=O)C(N)(c3ccccc3)c3cc(Cl)ccc32)c(OC)c1 (stereo not given)
11,138 to 140 °C,CCOC(=O)C1=C(C)N(C(C)=O)C(c2csc(C)n2)=NC1c1ccc(OC)cc1 (stereo not given)
12,91 to 93 °C,O=C(O)Cc1cccc(Oc2ccccc2O)c1O
13,129 °C,CCON=C(C(=O)OCC)c1csc(N)n1
14,130 to 132 °C,Cc1cc(C)c(C)c(COc2cccc(-c3c(-c4ccccc4)coc3C(=O)NNC(=O)c3ccc(O)c([N+](=O)[O-])c3)c2)c1C
15,244 to 246 °C,Oc1ccc2c(c1O)C(Cc1ccnc3ccccc13)c1ccccc1-2 (stereo not given)
16,185 to 188 °C,CCc1cn(C2OC(CN=[N+]=[N-])C(O)C2F)c(=O)[nH]c1=O (stereo not given)
17,192 to 193 °C,CCOc1ccc(-c2csc(-c3cccc(C(=O)OC)c3)n2)cc1
18,162 to 164 °C,COC1OCC[C@@H]1NC(=O)CN(CC(C)C)C(=O)CNC(=O)COc1ccc2c(c1)Nc1ccccc1S2 (stereo not given in full)
19,174 to 176 °C,COCCc1nc2c(N)nc3ccccc3c2n1CCCNC(=O)OC(C)(C)C
20,144 to 146 °C,CC1(C)CC(N2C(=O)c3ccc(C(=O)OCC(O)c4ccccc4)cc3C2=O)CC(C)(C)N1 (stereo not given)
21,160 to 161 °C,Cc1ccc2c(c1)C(C(=O)Nc1c(C)cccc1Cl)c1ccccc1CO2 (stereo not given)
22,242 to 245 °C,Cn1c2c(c3cccc(-c4ccccc4)c31)C(=O)NCC2
23,168 to 169 °C,N#Cc1ccc(NC(=O)c2cccc(OCc3ccc(Cl)cn3)c2)cc1

row,melting point,SMILES
1,99 to 102 °C,NC(=O)C1(N)CCCCC1
2,173 to 175 °C,CCN(C(=O)Cn1c(=O)n(C)c2nc(-c3ccccc3)nc(OC)c21)c1ccccc1
3,227 to 230 °C,Cc1nc(-c2c(Cl)cc(C(F)(F)F)cc2Cl)[nH]c1S(=O)(=O)Cl
4,254 to 257 °C,CC(C)(C)c1ccc(-c2nc(N)sc2-c2ccncc2)cc1
5,> 300 °C,N#Cc1cc(O)cc2cc(-c3ccc(O)c(F)c3)oc12
6,140 to 141 °C,O=C(c1ccc(F)cc1)C1CCN(C(=O)CCc2ccc(OCc3ccccc3)cc2OCc2ccccc2)CC1
7,64 to 66 °C,CC1(C)CCC(C)(C)c2cc(S(=O)(=O)n3c(CCCC(=O)O)cc4cc(Cl)ccc43)ccc21
8,104 to 106 °C,Cc1coc2c1C(=O)CC(c1ccccc1)C2 (stereo not given)
9,118 to 120 °C,Cc1c(NC(=O)C(CSC(=O)CC(C)C)Cc2ccccc2)cccc1C(=O)O (stereo not given)
10,153 to 154 °C,COc1cc2c(cc1OC)CN(CC(O)CC1(c3noc4cc(F)ccc34)CCNCC1)CC2 (stereo not given)
11,258 °C,CC(=O)Nc1ccc(Nc2c(NCc3ccco3)cc(C(=O)O)cc2S(=O)(=O)Nc2ccccc2NC(C)=O)cc1
12,200 to 202 °C,CC1=C(C#N)C(c2cccc3nnc(-c4ccccc4)cc23)C(C(=O)OC(C)C)=C(C)N1 (stereo not given)
13,128 to 130 °C,Nc1c(C(=O)c2ccccc2)[nH]c2cc(Cl)ccc12
14,100 to 102 °C,O=C1CC(CO)N1c1ccccc1 (stereo not given)
15,90 to 91 °C,O=C(O)CCCCCNC(=O)C(F)(F)F
16,165 to 167 °C,O=C(Nc1ccc(-n2nc(C(F)(F)F)cc2C(F)(F)F)cc1)c1c(F)cccc1Cl
17,144 to 145 °C,OCC1OC(n2c(Cl)c(-c3ccsc3)c3cc(Cl)c(Cl)cc32)CC1O (stereo not given)
18,142 to 143 °C,Oc1ccc(I)nc1Cl
19,249 °C,O=C1Nc2ccncc2C(=O)C1c1c(F)cccc1Cl (stereo not given)
20,105 to 106 °C,CCC12CCC3c4ccc(OC)cc4CCC3C1CC=C2OC(C)=O (stereo not given)
21,88 °C,CC(=O)c1c(F)cccc1N1CCN(C(=O)OC(C)(C)C)CC1
22,165 to 166 °C,CS(=O)(=O)c1ccc(C=C2/C(=N/O)CCc3ccccc32)cc1
23,142 to 144 °C,Cc1cccc([N+](=O)[O-])c1CNc1cccn2c(Cl)c(C)nc12

row,SMILES,melting point
1,COC(=O)[C@@]12CN(Cc3ccccc3)C[C@@H]1[C@@](O)(c1cccc(OC)c1)CC[C@H]2c1ccccc1 (racemic),118 °C
